Data: paper PMC11255275, “Structural insights into the triple agonism at GLP-1R, GIPR and GCGR manifested by retatrutide” (Cell Discovery, 2024)
pEC50: −log10 of the molar value. Like-named read-outs stand apart in the source and are kept apart here.

Assays:
[1] = molecular target: T1, GLP-1R (Homo sapiens, UniProt P43220); experiment: cAMP accumulation, wild-type GLP-1R; assay type: cell-based; settings: GLP-1R WT, HEK-293T, TR-FRET, mean ± S.E.M.
T1 construct: expressed in transfected cells; host or cells: HEK-293T
Experimental: (§1) HEK-293T cells were maintained at 37°C in 5% CO2 incubator and seeded onto 6-well cell […]
(§2) culture plates before transfection. After overnight culture, the cells were transiently transfected […]
(§3) with various constructs using Lipofectamine 2000 transfection reagent (Invitrogen). After 24 h, […]
(§4) the transfected cells were seeded onto 384-microtiter plates at a density of 3,000 cells per well […]
(§5) in stimulation buffer (HBSS supplemented with 5 mM HEPES, 0.1% (w/v) casein and 0.5 mM […]
(§6) 3-isobutyl-1-methylxanthine). Different concentrations of retatrutide in stimulation buffer were […]
(§7) added, and the stimulation lasted for 40 min. The reaction was stopped by addition of cAMP […]
(§8) detection buffer containing Eu-cAMP tracer and ULight-anti-cAMP. Plates were then incubated for […]
(§9) 60 min at RT. Time-resolved FRET signals were measured at 620 nm and 665 nm, respectively, by […]
(§10) an EnVision multilabel plate reader (PerkinElmer). Data were analyzed in GraphPad PRISM 9.5 […]
(§11) and all values were normalized to that of the wild-type (WT). […]
(§12) accumulation was measured in wild-type (WT) and single-point mutated GLP-1R, GIPR or […]
(§13) of the WT and dose-response curves were analyzed using a three-parameter logistic equation. […]
(§14) curves were analyzed using a three-parameter logistic equation to obtain pEC50 and Emax values. […]
(§15) way ANOVA was used to determine statistical difference. N.D., values that could not be determined due […]

[2] = molecular target: T2, GLP-1R mutants (Homo sapiens, UniProt P43220, Y205A); experiment: cAMP accumulation, single-point mutated GLP-1R; assay type: cell-based; settings: GLP-1R Y205(2.75b)A, HEK-293T, 40 min, TR-FRET, mean ± S.E.M., n at least 3
T2 construct: expressed in transfected cells; host or cells: HEK-293T
Experimental: as §1, §2, §3, §4, §5, §6, §7, §8, §9, §10
(§16) and all values were normalized to that of the wild-type (WT).
(§17) Supplementary Fig. 5 Effects of receptor mutation on retatrutide-induced cAMP […]
(§18) accumulation. a-c, Signaling profiles of GLP-1R (a), GIPR (b) and GCGR (c) mutants. cAMP […]
as §12
(§19) GCGR expressing HEK-293T cells. cAMP levels were normalized to the maximum response […]
(§20) of the WT and dose-response curves were analyzed using a three-parameter logistic equation.
(§21) Data were generated and graphed as means ± S.E.M. of at least three independent experiments performed in quadruplicate.
(§22) (1 picture or pasted object on this page, not shown here)
(§23) Supplementary Ta b l e S 5 Effects of the ligand-binding pocket residue mutation on retatrutide- […]
(§24) induced cAMP signaling at GLP-1R, GIPR or GCGR. […]
(§25) cAMP levels were normalized to the maximum response of the wild-type (WT) and dose-response […]
(§26) curves were analyzed using a three-parameter logistic equation to obtain pEC50 and Emax values. The […]
(§27) experiments were carried out independently at least three times. Data shown are means ± S.E.M. One- […]
as §15
(§28) to incomplete curve fits. *P< 0.05, **P< 0.01, ***P< 0.001 and ****P<0.0001.

[3] = molecular target: T3, GIPR (Homo sapiens, UniProt P48546); experiment: cAMP accumulation, wild-type GIPR; assay type: cell-based; settings: HEK-293T, 40 min, TR-FRET, mean ± S.E.M.
T3 construct: expressed in transfected cells; host or cells: HEK-293T
Experimental: as §1, §2, §3, §4, §5, §6, §7, §8, §9, §10, §11, §12, §13, §14, §15

[4] = molecular target: T4, GCGR (Homo sapiens, UniProt P47871); experiment: cAMP accumulation, wild-type GCGR; assay type: cell-based; settings: HEK-293T, 40 min, TR-FRET, mean ± S.E.M.
T4 construct: expressed in transfected cells; host or cells: HEK-293T
Experimental: as §1, §2, §3, §4, §5, §6, §7, §8, §9, §10, §11, §12, §13, §14, §15

[5] = molecular target: T5, GCGR mutants (Homo sapiens, UniProt P47871, W87A); experiment: cAMP accumulation, single-point mutated GCGR; assay type: cell-based; settings: GCGR W87(ECD)A, HEK-293T, 40 min, TR-FRET, mean ± S.E.M., n at least 3
T5 construct: expressed in transfected cells; host or cells: HEK-293T
Experimental: as §1, §2, §3, §4, §5, §6, §7, §8, §9, §10, §16, §17, §18, §12, §19, §20, §21, §22, §23, §24, §25, §26, §27, §15, §28

[6] = molecular target: T6, GCGR mutants (Homo sapiens, UniProt P47871, Y138A); experiment: cAMP accumulation, single-point mutated GCGR; assay type: cell-based; settings: GCGR Y138(1.36b)A, HEK-293T, 40 min, TR-FRET, mean ± S.E.M., n at least 3
T6 construct: expressed in transfected cells; host or cells: HEK-293T
Experimental: as §1, §2, §3, §4, §5, §6, §7, §8, §9, §10, §16, §17, §18, §12, §19, §20, §21, §22, §23, §24, §25, §26, §27, §15, §28

[7] = system: GCGR; settings: less potent than the endogenous hormone; cited from earlier work
Excerpt: (§29) The most successful treatments currently available include glucagon-like peptide-1 (GLP-1) receptor agonists (GLP-1RAs), exemplified by semaglutide (approved in 2017, $19.9 billion sales in 2023)[3] and tirzepatide (approved in 2022, $5.3 billion sales in 2023)[4].

[8] = system: GIPR; settings: GIPR, more potent than the endogenous hormone by this factor; cited from earlier work
Excerpt: as §29

[9] = system: GLP-1R; settings: GLP-1R, less potent than the endogenous hormone, factor; cited from earlier work
Excerpt: as §29

[10] = cited from earlier work; for average weight loss: 12 mg dose group
Excerpt: as §29, with “2023)[4]. […] For humans, events were mild, such as 50 1 ascending (PMID: 4 months ...” for “2023)[4].”

[11] = system: C57/Bl6 diet-induced obese (DIO) mice; settings: cited from earlier work
Excerpt: as §29, with “2023)[4]. […] For humans, events were mild, such as 50 1 ascending (PMID: 4 months ...” for “2023)[4].”

[12] = 12 mg, ref Jastreboff AM et al (supplement ref 19)
[13] = ref Rosenstock J et al (supplement ref 20)
[14] = C57/Bl6 DIO mice, ref Coskun T et al (supplement ref 17)

T3 sequence (P48546 22-466): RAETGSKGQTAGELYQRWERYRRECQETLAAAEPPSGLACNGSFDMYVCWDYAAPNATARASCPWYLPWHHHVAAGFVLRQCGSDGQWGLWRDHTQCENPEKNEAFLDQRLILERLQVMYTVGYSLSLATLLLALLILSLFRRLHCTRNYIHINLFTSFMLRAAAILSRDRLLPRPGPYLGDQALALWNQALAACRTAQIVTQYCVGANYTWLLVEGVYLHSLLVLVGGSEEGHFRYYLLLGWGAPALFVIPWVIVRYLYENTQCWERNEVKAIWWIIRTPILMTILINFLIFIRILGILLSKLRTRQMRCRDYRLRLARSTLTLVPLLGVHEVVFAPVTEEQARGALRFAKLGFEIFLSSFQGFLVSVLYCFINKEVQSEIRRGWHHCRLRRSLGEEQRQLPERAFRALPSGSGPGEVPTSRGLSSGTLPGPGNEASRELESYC
T1 sequence (P43220 24-463): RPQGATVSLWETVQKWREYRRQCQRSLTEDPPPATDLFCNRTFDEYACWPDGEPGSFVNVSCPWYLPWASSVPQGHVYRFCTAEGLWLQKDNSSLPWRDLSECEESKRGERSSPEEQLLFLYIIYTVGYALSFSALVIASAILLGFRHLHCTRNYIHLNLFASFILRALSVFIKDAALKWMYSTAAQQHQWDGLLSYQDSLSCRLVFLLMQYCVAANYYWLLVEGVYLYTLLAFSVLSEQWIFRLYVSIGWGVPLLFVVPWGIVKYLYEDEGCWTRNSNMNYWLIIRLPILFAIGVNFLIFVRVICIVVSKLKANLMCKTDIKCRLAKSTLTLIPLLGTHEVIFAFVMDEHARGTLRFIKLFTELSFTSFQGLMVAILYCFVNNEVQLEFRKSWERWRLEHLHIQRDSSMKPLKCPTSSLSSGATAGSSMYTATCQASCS
T5 sequence (P47871 26-477 W87A): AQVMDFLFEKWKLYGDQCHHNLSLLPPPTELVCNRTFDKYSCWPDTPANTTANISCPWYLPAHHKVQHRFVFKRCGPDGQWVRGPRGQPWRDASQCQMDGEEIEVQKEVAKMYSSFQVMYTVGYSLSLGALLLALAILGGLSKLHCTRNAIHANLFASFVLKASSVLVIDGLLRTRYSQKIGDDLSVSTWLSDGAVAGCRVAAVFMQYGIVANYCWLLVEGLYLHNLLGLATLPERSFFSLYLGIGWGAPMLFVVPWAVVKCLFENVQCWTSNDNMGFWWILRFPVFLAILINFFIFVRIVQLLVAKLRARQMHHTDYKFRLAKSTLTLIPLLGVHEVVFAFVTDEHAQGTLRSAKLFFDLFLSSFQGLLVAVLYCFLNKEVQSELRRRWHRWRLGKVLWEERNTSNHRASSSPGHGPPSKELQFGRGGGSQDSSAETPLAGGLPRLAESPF
T2 sequence (P43220 24-463 Y205A): as the sequence (P43220 24-463) above, with Y182A counted along it
T4 sequence (P47871 26-477): as the sequence (P47871 26-477 W87A) above, with A62W counted along it
T6 sequence (P47871 26-477 Y138A): as the sequence (P47871 26-477 W87A) above, with A62W, Y113A counted along it

CC[C@H](C)[C@H](NC(=O)[C@H](Cc1ccccc1)NC(=O)[C@H](C)NC(=O)C(C)(C)NC(=O)[C@H](CCC(N)=O)NC(=O)[C@H](C)NC(=O)[C@H](CCCCNC(=O)COCCOCCNC(=O)CC[C@H](NC(=O)CCCCCCCCCCCCCCCCCCC(=O)O)C(=O)O)NC(=O)[C@H](CCCCN)NC(=O)[C@H](CC(=O)O)NC(=O)[C@H](CC(C)C)NC(=O)[C@](C)(CC(C)C)NC(=O)[C@@H](NC(=O)[C@H](CO)NC(=O)[C@H](Cc1ccc(O)cc1)NC(=O)[C@H](CC(=O)O)NC(=O)[C@H](CO)NC(=O)[C@@H](NC(=O)[C@H](Cc1ccccc1)NC(=O)[C@@H](NC(=O)CNC(=O)[C@H](CCC(N)=O)NC(=O)C(C)(C)NC(=O)[C@@H](N)Cc1ccc(O)cc1)[C@@H](C)O)[C@@H](C)O)[C@@H](C)CC)C(=O)N[C@@H](CCC(=O)O)C(=O)N[C@@H](Cc1ccc(O)cc1)C(=O)N[C@@H](CC(C)C)C(=O)N[C@@H](CC(C)C)C(=O)N[C@@H](CCC(=O)O)C(=O)NCC(=O)NCC(=O)N1CCC[C@H]1C(=O)N[C@@H](CO)C(=O)N[C@@H](CO)C(=O)NCC(=O)N[C@@H](C)C(=O)N1CCC[C@H]1C(=O)N1CCC[C@H]1C(=O)N1CCC[C@H]1C(=O)N[C@@H](CO)C(N)=O [retatrutide]
Emax ± S.E.M. (% WT) ([1]; 40 min, n at least 3): 100.00 ± 2.75 % WT | pEC50 ([1]; 40 min stimulation, at least 3 independent experiments in quadruplicate): 11.05 | Emax ± S.E.M. (% WT) [2]: 101.35 ± 4.70 % WT | pEC50 ([2]; **P < 0.01): 10.41 | pEC50 ([3]; GIPR WT, at least 3 independent experiments in quadruplicate): 11.64 | Emax ± S.E.M. (% WT) ([3]; n at least 3): 100.00 ± 2.84 % WT | pEC50 ([4]; GCGR WT, at least 3 independent experiments in quadruplicate): 11.15 | Emax ± S.E.M. (% WT) ([4]; n at least 3): 100.00 ± 1.46 % WT | Emax ± S.E.M. (% WT) [5]: 101.97 ± 3.51 % WT | pEC50 ([5]; ****P < 0.0001): 9.20 | Emax ± S.E.M. (% WT) [6]: 101.28 ± 2.08 % WT | pEC50 ([6]; ****P < 0.0001): 9.71 | potency factor compared to endogenous hormone [7]: 0.3 | potency factor compared to endogenous hormone [8]: 8.9 | potency factor compared to endogenous hormone [9]: 0.4 | participants with weight reduction of 5% or more ([10]; 8 mg or 12 mg, ref Jastreboff AM et al (supplement ref 19)): All the participants | participants who lost 20% or more of baseline weight [10, 12]: nearly two thirds | participants who lost 25% or more of baseline weight [10, 12]: nearly half | participants who lost 30% or more of baseline weight [10, 12]: a quarter | average weight loss ([10]; 24 weeks): 17.5% | least-squares mean percentage change in body weight ([10]; 24 weeks, 12-mg group, placebo –1.6%, ref Jastreboff AM et al (supplement ref 19)): –17.5% | least-squares mean percentage change in body weight ([10]; 24 weeks, combined 4-mg group, placebo –1.6%, ref Jastreboff AM et al (supplement ref 19)): –12.9% | least-squares mean percentage change in body weight ([10]; 24 weeks, combined 8-mg group, placebo –1.6%, ref Jastreboff AM et al (supplement ref 19)): –17.3% | participants who lost at least 15% of body weight (up to) ([10]; 36 weeks, ref Rosenstock J et al (supplement ref 20)): Up to 63% | average weight loss ([10]; 48 weeks): 24.2% | least-squares mean percentage change in body weight ([10]; 48 weeks, 12-mg group, placebo –2.1%, ref Jastreboff AM et al (supplement ref 19)): –24.2% | least-squares mean percentage change in body weight ([10]; 48 weeks, combined 4-mg group, placebo –2.1%, ref Jastreboff AM et al (supplement ref 19)): –17.1% | least-squares mean percentage change in body weight ([10]; 48 weeks, combined 8-mg group, placebo –2.1%, ref Jastreboff AM et al (supplement ref 19)): –22.8% | blood pressure ([10]; dose-dependent, ref Rosenstock J et al (supplement ref 20)): reduction of blood pressure | frequency of gastrointestinal events by starting dose ([10]; in vivo): occurred more frequently | heart rate ([10]; in vivo): Dose-dependent increases | mitigation of gastrointestinal adverse events by lower starting dose ([10]; in vivo): partially mitigated | participants with gastrointestinal adverse events ([10]; in vivo): 35% | safety profile ([10]; in vivo): safety profile comparable to certain approved GLP-1RAs | severity of most common (gastrointestinal) adverse events ([10]; in vivo): mild to moderate in severity | glycemic control ([10]; phase 2, type 2 diabetes): significant improvements in glycemic control | weight reduction ([10]; phase 2, type 2 diabetes): substantial weight reduction | glycemic control [10, 13]: clinically improvements in glycemic control | non-HDL cholesterol [10, 13]: reduction | reduction of triglycerides [10, 13]: ~ 35% | ED50, body weight reduction [11, 14]: 4.73 nmol/kg | body weight and calorie intake [11, 14]: dose-dependently reduced | body weight loss compared with tirzepatide ([11]; obese mice, due to an increased energy expenditure through GCGR activation): greater body weight losses in obese mice than tirzepatide
